In patent publication US7989587B2, “SSX-2 peptides presented by HLA class II molecules” (Ludwig Institute for Cancer Research Ltd., priority 1999, dated 2011):

Legend:
[1] = system: HLA-DR; assay: Binding of SSX-2 peptides to HLA-DR subtypes (Example 7); set-up: species or system human
Excerpt: The methods described above were used to test the binding of SSX-2 peptides p98-112 and p101-115 (SEQ ID NO:40 and SEQ ID NO:43, respectively).

[2] = system: SSX-2 specific DR3 restricted CD4+ T cells; assay: Peptide titration assay, IFN-γ secretion by ELISA; format: cell-based, human; settings: FIG. 10B
Procedure: (§1) For intracellular cytokine secretion detection, T cells were stimulated in the absence or in the presence of peptides at the indicated dose during 4 h as described previously (Ayyoub M, et al., J Clin Invest., 2004; 113 (8): 1225-33, see examples above). One hour after the beginning of the incubation, Brefeldin A ([…], Sigma) was added to inhibit cytokine secretion. After incubation, cells were stained with anti-CD4 mAb (BD Biosciences, San Diego, Calif.) for 20 min at 4° C. and fixed using formaldehyde, permeabilized with saponine (Sigma, 0.1% in PBS 5% FCS), stained with anti IFN-γ mAb (BD Biosciences) and analyzed by flow cytometry. Data analysis was performed using Cell Quest software. IFN-γ secretion was assessed as described (Ayyoub M, et al., J Clin Invest., 2004; 113 (8): 1225-33). T cells (10,000/well) and EBV transformed B cells (EBV) used as antigen-presenting cells (APC, 10,000/well) were incubated in the absence or in the presence of peptides at the indicated dose in 96-well round-bottom plates in […]/well of medium. […] After 24 h incubation at 37° C., culture supernants were collected and the content of IFN-g determined by ELISA (BioSource International, Camarillo, Calif., USA).
Mapping of the actual epitope recognized by SSX-2 specific DR3 restricted CD4+ T cells was then assessed experimentally by analyzing the capacity of SSX-2 37-58 relative to that of truncated peptide variants to stimulate IFN-g secretion by specific T cells, in a peptide titration assay (FIG. 8B). […]
As a high degree of homology exists between SSX-2 and other SSX family members, it was interesting to assess the ability of SSX-2 specific DR3 restricted CD4+ T cells to recognize homologous peptides in the sequence of other SSX proteins. […] This was the result of the large conservation of the amino acid positions representing anchor residues for binding to DRB1*0301 with only one of these residues (position 6) being polymorphic in the analyzed sequences, but in all cases occupied by an amino acid known, at this position, to favorably impact on binding to DRB1*0301. […]

[3] = system: SSX-2 37-51 specific DR3 restricted CD4+ T cells; assay: Recognition of recombinant protein loaded EBV cells, IFN-γ ELISA; format: cell-based, human; settings: FIG. 9C, FIG. 10C
Procedure: as §1, with “medium. In some experiments tumor cells were used as APC.” for “medium.”, “USA). […]” for “USA).”

[4] = system: T cells; assay: BrdU proliferation assay of T cells with peptide or protein loaded autologous dendritic cells; format: cell-based, human
Procedure: The peptides were then combined with autologous dendritic cells. These were obtained by isolating peripheral blood mononuclear cells (“PBMCs”), from HLA-DR+donors, using Ficoll-Hypaque methods. These PBMCs were then incubated for 1-2 hours at 37° C., on plastic surfaces. Adherent monocytes were then cultured for 5 days in medium that had been supplemented with interleukin-4 (IL-4) and GM-CSF. To elaborate, AIMV medium supplemented with 1000 U/ml of IL-4, and 1000 U/ml of GM-CSF was used. This incubation stimulates differentiation into dendritic cells.
Samples of dendritic cells (8×10^5) were then loaded with 50 μg/ml of […] added peptide. The loading proceeded for 2 hours, at 37° C., in medium supplemented with 1000 U/ml of TNF-α and 10,000 U/ml of IL-1β. Peptide pulsed dendritic cells were then washed twice, in excess peptide free medium. Then, autologous peripheral blood lymphocytes (4×10^7) were combined with 8×10^5 peptide loaded dendritic cells (ratio of 50:1), in medium which contained 5 ng/ml of IL-7 and 20 U/ml of IL-2. Incubation was carried out at 37° C.
Cultures were restimulated weekly with peptide loaded, irradiated PBMCs.
The ability of the peptides to form complexes with HLA-DR molecules and to stimulate CD4^+ cell proliferation was determined by measuring BrdU uptake.
The specificity of the resulting CD4^+ cells was then tested by combing them with autologous dendritic cells that had been loaded with peptide, admixed with full length recombinant SSX-2 protein, or with an unrelated protein.
The results presented in Example 4 led to additional experiments using T cells that had been isolated from two donors using standard protocols. In these experiments, autologous dendritic cells were prepared, as described, and combined with T cells whose proliferation was determined in a BrdU assay. […] The SSX-2 full length molecule provoked just slightly less than 60% proliferation, while the peptide mixture provoked about 85% proliferation.

[5] = system: CD4^+ T-cells; assay: IFN-γ ELISPOT assay of peptide-primed CD4+ T-cells; format: cell-based, human; settings: T-cells prestimulated with p45-59; autologous and allogeneic DC
Procedure: PBMC from patients were isolated by Ficoll-Paque™ PLUS separation (Amersham Pharmacia Biotech AB, Uppsala, Sweden). For in-vitro priming, 1×10^7 and 2×10^6 unseparated PBMC, respectively, were suspended in 500 μl serum-free medium (X-Vivo 15 (Biowhittaker Europe s.p.r.l., Verviers, Belgium) supplemented with 2 mM L-glutamine (Gibco) and 1% penicillin/streptomycin (Gibco). For pulsing, the pool of the 3 SSX2-derived peptides (each at a concentration of 2 μg/ml) was added to the suspension of 1×10^7 cells, while the suspension of 2×10^6 PBMC was pulsed with the mix of 7 peptides (each at 2 μg/ml) derived from the pp65 antigen of the human CMV. Pulsing was performed for 90-120 minutes at 37° C. Thereafter the pulsed cells were washed once with serum-free medium and suspended for cultivation in X-Vivo 15 T-cell medium (Biowhittaker) supplemented with 10% human AB serum (Biowhittaker) and 6.7 ng/ml IL-7 (R&D systems). The 1×10^7 SSX2-pulsed PBMC were suspended in 3.75 ml T-cell medium and plated into 5 wells (0.75 ml/well) of a 48-well Nuncclone™ plate (Nunc GmbH & Co KG.). The 2×10^6 pp65-pulsed PBMC were plated into 1 well (0.75 ml). The remaining PBMC from the patients or donors, respectively, were divided into at least 3 aliquots of 1×10^7 PBMC and frozen until used for restimulation and in the T-cell assays. The peptide-pulsed PBMC which served both as APC and as a source for the T-cells to be used in the ELISPOT assay, were cultured at 37° C. One day after the stimulation was started, each well was supplemented with 250 μl X-Vivo 15 medium supplemented with 80 U/ml IL-2 (R&D Systems) resulting in a final concentration of 20 U/ml IL-2. The cells were incubated for 6 days under occasional microscopic control. On day 7 and before each ELISPOT assay, respectively, the percentage of CD4^+ T-cells in the culture well was determined. On day 7, cells were restimulated with autologous PBMC that had been pulsed with the appropriate peptides under the same conditions as described for day 0/1 at a CD4^+/APC ratio of 1:1. On day 14, the first ELISPOT assay was performed. To this end, the cultured cells were harvested from the respective wells and the primed CD4^+ cells were used as effectors in the ELISPOT assay. The remaining cells were restimulated once more using conditions as described before. […] no specific reactivity was shown by day 21, the stimulation was repeated weekly until all CD4^+ cells were consumed.
At least three IFN-γ ELISPOT assays were performed on days 14, 21 and 28, respectively. All tests were run in triplicates in order to determine mean values and standard deviations. Assays were performed in nitrocellulose-lined 96-well plates (MAHA S45 by Millipore, Bedford Mass., USA). The wells were pre-coated overnight with PBS (50 μl/well) containing an anti-IFN-γ capture antibody at the dilution recommended in the supplier's instructions (Mabtech AB, Nacka, Sweden). To block unspecific binding, the wells were then incubated with 10% human AB^+ serum for 1 h at 37° C. For the priming of effector cells, 2.5×10^4 CD4^+ T-cell were harvested, washed once to remove the cytokines, and were tested for specific recognition of the corresponding antigen. To this end, peptide-primed CD4^+ cells were harvested, washed once to remove cytokines, resuspended, and 50 μl of the cell suspension in X-Vivo 15 medium were added to each well. […]

FGRLQGISPKIMPKK (SSX-2 peptide) [p101-115]
HLA-DR subtypes to which binding was demonstrated [1]: DRB1*0701, DRB1*0301 and/or DRB3*0202

QMTFGRLQGISPKIM (SSX-2 peptide) [p98-112]
HLA-DR subtypes to which binding was demonstrated [1]: DRB1*0101, DRB1*1101, DRB1*1501, DRB3*0202 and/or DRB5*0101

WEKMKSSEKIYYVYM (WEKMKSSEKIVYVYM; SSX-4 peptide (37-51)) [SSX-4 37-51]
recognition, fold less efficiently as compared to the SSX-2 37-51 peptide [2]: about 10 fold

WEKMKVSEKIVYVYM (SSX-3 peptide (37-51)) [SSX-3 37-51]
cross-recognition of 37-51 homologous peptides [2]: No cross-recognition was detected

WKKMKYSEKISYVYM (SSX-1 peptide (37-51)) [SSX-1 37-51]
cross-recognition of 37-51 homologous peptides [2]: No cross-recognition was detected

B1: SSX-4 protein: SSX-4 recombinant protein (protein, UniProt O60224 1-188, looked up)
Protein SSX4: MNGDDAFARRPRDDAQISEKLRKAFDDIAKYFSKKEWEKMKSSEKIVYVYMKLNYEVMTKLGFKVTLPPFMRSKRAADFHGNDFGNDRNHRNQVERPQMTFGSLQRIFPKIMPKKPAEEENGLKEVPEASGPQNDGKQLCPPGNPSTLEKINKTSGPKRGKHAWTHRLRERKQLVVYEEISDPEEDDE
processing and presentation of recombinant protein by DR3+ EBV cells, recognition by specific CD4+ T cells [3]: barely detectable

B2: SSX-2 full length molecule: full length recombinant SSX-2 protein (protein, UniProt Q16385 1-188, looked up)
chain: MNGDDAFARRPTVGAQIPEKIQKAFDDIAKYFSKEEWEKMKASEKIFYVYMKRKYEAMTKLGFKATLPPFMCNKRAEDFQGNDLDNDPNRGNQVERPQMTFGRLQGISPKIMPKKPAEEGNDSEEVPEASGPQNDGKELCPPGKPTTSEKIHERSGPKRGEHAWTHRLRERKQLVIYEEISDPEEDDE
modifications: full-length
notes: full length recombinant SSX-2 protein
proliferation ([4]; first set of experiments, mixture of the 5 peptides of Example 4 compared to equal amount of protein): less than 60%
T cell proliferation induced by pulsed dendritic cells ([4]; six individual experiments, versus other peptides or TALL): greater T cell proliferation
T-cell response to dendritic cells pulsed with whole protein [5]: induced a significant T-cell response
processing and presentation of recombinant protein by DR3+ EBV cells, recognition by specific CD4+ T cells [3]: efficiently process
